Experimental data as given in patent US20260216347A1, “Substituted Imidazo-Based Compounds as Ligand Directed Degraders of IRAK3” (Celgene Corporation, priority 2022, published 2026).
pIC50: −log10 of the molar value.

Tests used:
IRAK3 = biological target: T1, IRAK3 (Homo sapiens, UniProt Q9Y616); assay: IRAK3 biochemical binding assay (LanthaScreen Eu Kinase Binding, TR-FRET)
T1 construct: IRAK Endogenous HTRF Degradation Assay; endogenous in cells
T1 sequence (Q9Y616 1-596): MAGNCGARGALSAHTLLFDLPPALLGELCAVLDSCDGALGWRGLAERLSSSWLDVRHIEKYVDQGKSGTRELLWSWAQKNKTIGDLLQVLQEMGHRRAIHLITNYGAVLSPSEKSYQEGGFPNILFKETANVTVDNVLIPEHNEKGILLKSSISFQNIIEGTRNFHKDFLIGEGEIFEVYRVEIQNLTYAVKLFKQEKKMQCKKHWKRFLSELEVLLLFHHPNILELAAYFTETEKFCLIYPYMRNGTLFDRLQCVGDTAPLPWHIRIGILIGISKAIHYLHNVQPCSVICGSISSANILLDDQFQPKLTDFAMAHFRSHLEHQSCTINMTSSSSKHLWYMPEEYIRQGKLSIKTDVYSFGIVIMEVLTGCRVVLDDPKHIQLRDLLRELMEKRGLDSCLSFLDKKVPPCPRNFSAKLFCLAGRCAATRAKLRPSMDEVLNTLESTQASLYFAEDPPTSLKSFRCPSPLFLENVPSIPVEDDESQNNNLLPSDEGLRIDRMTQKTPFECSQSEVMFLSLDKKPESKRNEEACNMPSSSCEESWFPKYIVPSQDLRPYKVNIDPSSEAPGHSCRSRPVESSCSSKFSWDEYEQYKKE
Method: Example B3. IRAK3 Biochemical Binding Assay
The LanthaScreen® Eu Kinase Binding assay was performed as described by the vendor (ThermoFisher Scientific Waltham, MA). Briefly, 100× solutions of compound were prepared in DMSO via serial dilution of the 10 mM stock solution in a 384-well reagent plate using 3-fold intervals to achieve final concentrations. 1 μL of the compound dilution series were added to the corresponding wells of a 384-well reagent plate containing 32.3 μL of 1× buffer (50 mM HEPES pH 7.4, […], 1 mM EGTA, 0.01% Brij-35). 5 μL of the buffer diluted compounds were transferred to the corresponding wells of a 384-well assay plate. 5 μL of 3× tracer was transferred to each well of the assay plate for a final tracer concentration of 10 nM. Finally, 5 μL of the 3×Eu-Anti-GST and IRAK3 mix was transferred to each well for a final concentration of 2 nM and 10 nM respectively. Reactions were allowed to incubate for 1 hour at room temperature. TR-FRET signal of the interaction (λex340/λem 665/λem 615) was read at room temperature with a delay time of 100 ρs and an integration time of 200 ρs using an Envision plate reader. Background corrected emission signal ratios at each compound concentration were used to calculate percentage of inhibition (% Inhibition). Plots of % Inhibition versus inhibitor concentrations were fit according to a dose-response equation (Eq. 1) to generate IC50 and Hill slope values using Dotmatics software (Dotmatics, Bishops Stortford, Hertfordshire, England).
Using these assays, IC50, Dmax, EC50, and DC50 values of the following compounds were determined. Dmax is defined as the maximum percent degradation achieved and DC50 is the concentration at which 50% degradation is achieved.

IRAK3-ePL = biological target: T2, IRAK3-ePL (Homo sapiens, UniProt Q9Y616); assay: IRAK3-ePL overexpressing degradation assay (InCELL Hunter luminescence, dose response); type: cell-based; settings: for IRAK3 ePL degradation Ymin: lowest percentage of target protein remaining following compound treatment; for DC50: read-out: IRAK3 ePL degradation EC50
T2 construct: expressed in transfected cells; host or cells: 293T CRBN OE/GSPT1 G575N KI cells, lentiviral transduction, puromycin selected
Method: Example B1. IRAK3-ePL Overexpressing Degradation Assay
Stable cell lines were generated by the following protocol. 3×10^5 Lenti-X 293T cells (Clonetech) were plated in 0.8 mL of media in a 12-well plate and incubated overnight at 37° C./5% CO2. Packaging plasmid (0.4 μg, pMD), envelope plasmid (0.4 μg, pSP), and lentiviral transfer IRAK3-ePL plasmid (0.8 μg, TRAK3 sequence NM_007199.3) were mixed in 0.1 mL of Opti-MEM and incubated for 5 min. Simultaneously, 2.4 μL of Lipofectamine 2000 (Invitrogen) was added to 0.1 mL of Opti-MEM (Gibco) and incubated for 5 min. The plasmid DNA and lipofectamine were combined and the mixture was allowed to incubate for 20 min.DNA:Lipofectamine Opti-MEM mixtures were then added to previously plated cells dropwise and the cells were incubated for ~16 h at 37° C./5% CO2. Following incubation, the media was removed and 1.2 mL of fresh media was added per well. Lenti-X 293T cells were incubated for ~30 h at 37° C./5% CO2. […] Following incubation, media was removed from the Lenti-X 293T wells and passed through a […] filter. Part of the viral supernatant was used to transduce cells and the rest was stored at −80° C. Viruses were then added individually (0.5 mL virus) to each well of the 293T^CRBN OE/GSPT1 G575N KI cells, followed by addition of polybrene (10 mg/mL Millipore) to each well at a final concentration of 5.0 μg/mL. Cells were incubated for ~24 h at 37° C./5% CO2. After aspirating media off plates, cells were washed with DPBS, trypsinized and plated in a 10 cm dish in 15 mL of media and […] puromycin. Following incubation of cells for ~72 h at 37° C./5% CO2, media was aspirated off plates, and cells were washed with DPBS and trypsinized. The cells were plated in a 15 cm dish in 40 mL of media with 1.0 μg/mL Puromycin (Gibco) and incubated for ~72 h at 37° C./5% CO2. Following incubation, media was removed and cells were washed with DPBS and trypsinized. The majority of cells were resuspended in Invitrogen freezing media and stored away (~6-8×10^6 cells/vial).
IRAK3-ePL cellular dose response curve degradation assays were performed by the following protocol. Compounds to be tested were dispensed into a white 384-well tissue-culture treated plate using an acoustic liquid handler. Dilutions were prepared based on a 25 μL assay volume in duplicate 10 point 3-fold serial dilutions starting with a 10 μM dose. Negative control wells were included, which only contain 0.2% DMSO to calculate 100% signal. Positive control wells containing 30 μM Ataluren (luciferase inhibitor) were included to calculate the background signal level. All wells were backfilled to a final DMSO concentration of 0.2% to ensure DMSO uniformity across wells. IRAK3-ePL expressing cells (IRAK3-ePL Lenti-X 293T^CRBN/GSPT1 G575N) were washed, trypsinized, counted, and resuspended in fresh DMEM (Gibco) to give a cell concentration of 200,000 cells/mL. 25 μL of cells (5,000 cells/well) were dispensed into the wells of the 384-well plate prespotted with compounds in the previous step and incubated overnight at 37° C./5% CO2. Following incubation, the 384-well plate was taken out of the incubator and left at room temperature for 30 min. InCELL hunter reagent was prepared according to manufacturer's instructions (EA reagent, lysis buffer, and substrate reagent in a 1:1:4 ratio, Cat #96-0002, DiscoverX), which was added to the 384-well plate 25 μL per well. Following the incubation of the plate for 1 h at room temperature, the luminescence signal was read using a ViewLux plate reader. Data was processed and analyzed in ActivityBase software. In short, the average luminescence values of the positive control wells were subtracted from the rest of the wells for background correction, and all luminescence values were normalized to the DMSO control wells. The average value of the DMSO control wells was set to equal 100% of the relative IRAK3-ePL protein levels. […]

| Compound | pIC50 (IRAK3) | IRAK3 ePL degradation Ymin (IRAK3-ePL) [%] | DC50 (IRAK3-ePL) [nM] |
| --- | --- | --- | --- |
| Cc1cc(-c2cnc(Nc3cnn([C@H]4CC[C@H](CCN5CCN(c6ccc7c(C8CCC(=O)NC8=O)nn(C)c7c6)CC5)CC4)c3)c3nccn23)c(F)cc1F (stereo partly drawn) [Compound 105, 3-(6-(4-(2-((trans)-4-(4-((5-(2,4-difluoro-5-methylphenyl)imidazo[1,2-a]pyrazin-8-yl)amino)-1H-pyrazol-1-yl)cyclohexyl)ethyl)piperazin-1-yl)-1-methyl-1H-indazol-3-yl)piperidine-2,6-dione] | 9.74 |  |  |
| Cc1cc(-c2ccc(Nc3cnn([C@H]4CC[C@H](CCN5CCN(c6ccc(C7CCC(=O)NC7=O)cc6)CC5)CC4)c3)c3nccn23)c(F)cc1F (stereo partly drawn) [Compound 108] | 8.59 |  |  |
| O=C1CCC(c2ccc(N3CCN(CC[C@H]4CC[C@H](n5cc(Nc6ncc(-c7cnn8c7CCCC8)n7ccnc67)cn5)CC4)CC3)cc2)C(=O)N1 (stereo partly drawn) [Compound 118] | 10.00 |  |  |
| O=C1CCC(c2ccc(N3CCN(CCN4CCC(n5cc(Nc6ncc(-c7ccccc7)n7ccnc67)cn5)CC4)CC3)cc2)C(=O)N1 (stereo not drawn) [Compound 88, 3-(4-(4-(2-(4-(4-((5-phenylimidazo[1,2-a]pyrazin-8-yl)amino)-1H-pyrazol-1-yl)piperidin-1-yl)ethyl)piperazin-1-yl)phenyl) piperidine-2,6-dione] | 7.80 |  |  |
| Cc1cc(-c2cnc(Nc3cnn(C4CCN(CCN5CCN(c6ccc(C7CCC(=O)NC7=O)cc6F)CC5)CC4)c3)c3nccn23)c(F)cc1F (stereo not drawn) [Compound 49, 3-(4-(4-(2-(4-(4-((5-(2,4-difluoro-5-methylphenyl)imdazo [1,2-a]pyrazin-8-yl)amino)-1H-pyrazol-1-yl)piperidin-1-yl)ethyl)piperazin-1-yl)-3-fluorophenyl)piper idine-2,6-dione] |  | 24 | 2.4 |
| O=C1CCC(c2ccc(N3CCN(CC[C@H]4CC[C@H](n5cc(Nc6ncc(C7CC7)n7ccnc67)cn5)CC4)CC3)cc2)C(=O)N1 (stereo partly drawn) [Compound 47, 3-(4-(4-(2-((trans)-4-(4-((5-cyclopropylimidazo[1,2-a]pyrazin-8-yl)amino)-1H-pyrazol-1-yl)cyclohexyl)ethyl)piperazin-1-yl)phenyl) piperidine-2,6-dione] |  | 23 | 0.61 |
| Cc1cc(-c2cnc(Nc3cnn([C@H]4CC[C@@H](CCN5CC6(C5)CN(c5ccc(C7CCC(=O)NC7=O)cc5)C6)CC4)c3)c3nccn23)c(F)cc1F (stereo partly drawn) [Compound 101] | 8.12 |  |  |
| O=C1CCC(c2ccc(N3CCN(CCN4CCC(n5cc(Nc6ncc(C7=CCCC7)n7ccnc67)cn5)CC4)CC3)cc2)C(=O)N1 (stereo not drawn) [Compound 68, 3-(4-(4-(2-(4-(4-((5-(cyclopent-1-en-1-yl)imidazo[1,2-a]pyrazin-8-yl)amino)-1H-pyrazol-1-yl)piperidin-1-yl)ethyl)piperazin-1-yl)phenyl) piperidine-2,6-dione] |  | 24 | 0.54 |
| Cc1cc(-c2cnc(Nc3cnn([C@H]4C[C@H](CCN5CCN(c6ccc(C7CCC(=O)NC7=O)cc6)CC5)C4)c3)c3nccn23)c(F)cc1F (stereo partly drawn) [Compound 66, 3-(4-(4-(2-((trans)-3-(4-((5-(2,4-difluoro-5-methylphenyl)imidazo[1,2-a]pyrazin-8-yl)amino)-1H-pyrazol-1-yl)cyclobutyl)ethyl)piperazin-1-yl)phenyl) piperidine-2,6-dione] |  | 32 | 9.6 |
| O=C1CCC(c2ccc(N3CCN(CCN4CCC(n5cc(Nc6ncc(C7CC7)n7ccnc67)cn5)CC4)CC3)cc2)C(=O)N1 (stereo not drawn) [Compound 46, 3-(4-(4-(2-(4-(4-((5-cyclopropylimidazo[1,2-a]pyrazin-8-yl)amino)-1H-pyrazol-1-yl)piperidin-1-yl)ethyl)piperazin-1-yl)phenyl) piperidine-2,6-dione] |  | 24 | 0.51 |
| Cc1cc(-c2cnc(Nc3cnn(C4CCN(CCN5CCN(c6ccc(C7CCC(=O)NC7=O)cc6Cl)CC5)CC4)c3)c3nccn23)c(F)cc1F (stereo not drawn) [Compound 43, 3-(3-chloro-4-(4-(2-(4-(4-((5-(2,4-difluoro-5-methylphenyl)imdazo [1,2-a]pyrazin-8-yl)amino)-1H-pyrazol-1-yl)piperidin-1-yl)ethyl)piperazin-1-yl)phenyl) piperidine-2,6-dione] |  | 24 | 2.8 |
| CN1CCOc2ccc(-c3cnc(Nc4cnn(C5CCN(CCN6CCN(c7ccc(C8CCC(=O)NC8=O)cc7)CC6)CC5)c4)c4nccn34)cc21 (stereo not drawn) [Compound 48, 3-(4-(4-(2-(4-(4-((5-(4-methyl-3,4-dihydro-2H-benzo[b][1,4]oxazin-6-yl)imidazo[1,2-a]pyrazin-8-yl)amino)-1H-pyrazol-1-yl)piperidin-1-yl)ethyl)piperazin-1-yl)phenyl) piperidine-2,6-dione] |  | 24 | 0.77 |
| Cc1cc(-c2cnc(Nc3cnn([C@H]4CC[C@H](CN5CCN(c6ccc(C7CCC(=O)NC7=O)cc6)CC5)CC4)c3)c3nccn23)c(F)cc1F (stereo partly drawn) [Compound 67, 3-(4-(4-(((trans)-4-(4-((5-(2,4-difluoro-5-methylphenyl)imidazo[1,2-a]pyrazin-8-yl)amino)-1H-pyrazol-1-yl)cyclohexyl)methyl)piperazin-1-yl)phenyl) piperidine-2,6-dione] |  | 38 | 5.5 |
